Source: US20160221974A1, “SODIUM CHANNEL MODULATORS FOR THE TREATMENT OF PAIN AND DIABETES” (CHROMOCELL CORPORATION, priority 2013, published 2016)

How the values were obtained:
CYP3A4 = target: T1, CYP3A4 (Homo sapiens, UniProt P08684); experiment: In-Vitro Cytochrome P450 (CYP450) Inhibition Assay (Vivid CYP450); format: in vitro ADME; conditions: CYP3A4 enzyme complex (Vivid CYP450, Invitrogen), 6 μM test concentration
T1 construct: purchased Invitrogen
Protocol: We evaluated interaction of drug candidates with cytochrome P450 enzymes which are a major determinant of drug clearance via oxidative metabolism using a high throughput compatible, fluorescence based CYP450 screening assay (Vivid® CYP450, Invitrogen) according to manufacturer's directions.
In brief, test compounds at four different concentrations (μM—6.0, 2.0, 0.7, 0.2), a positive control (Ketoconazole) and a solvent control were incubated at room temperature in unique wells of a 96-well microtiter plate with CYP3A4 enzyme complex for 20 minutes. A pre-read fluorescence (Ex−485 nm/Em−530 nm) was measured at the start of the incubation using a Tecan Safire^2 microplate reader-monochromator to determine background fluorescence. At the end of the incubation period, enzyme substrate and co-enzyme were added and the reaction was kinetically monitored for 1 hour by measuring fluorescence every minute. Effect of test compounds on inhibition of CYP3A4 metabolism of provided substrate was determined by calculating the ratio of the effective reaction rate in presence of test compound to that in the absence of inhibitor.

NaV1.7 = target: T2, NaV1.7 (Homo sapiens, UniProt Q15858); experiment: Patchliner Electrophysiological In-Vitro Assay (NaV1.7); format: cell-based; conditions: Patchliner patch clamp, HEK293, holding at V1/2
T2 construct: expressed in transfected cells
Protocol: In vitro assays were performed in recombinant cell line that stably express a heterotrimeric protein of interest from an introduced nucleic acid encoding the alpha subunit (hNav1.7, SCN9A), the beta subunit (SCNB1) and the beta subunit (SCNB2). The cell line was engineered using Human Embryonic Kidney 293 cells as host background. Additional cell lines stably expressing recombinant Nav1.7 or Nav1.5 alpha subunit alone or in combination with various beta subunits can also be used in in-vitro assays.
The recording of sodium current from stable HEK293 cell lines expressing NaV1.7 or NaV1.5 was done on a Patchliner® instrument, Nanion Technologies. The Patchliner® is a fully automated bench-top patch clamp platform and can record simultaneously from up to eight single cells with GΩ seals.
For patch-clamp experiments, cells were grown under standard culturing conditions in Dulbecco's Modified Eagles medium supplemented with 10% fetal bovine serum, glutamine and HEPES. Cells were harvested and kept in suspension for up to 4 hours with no significant change in quality or ability to patch. Whole cell patch clamp recordings were conducted according to Nanion's standard procedure for the Patchliner®. Experiments were conducted at room temperature.
Voltage protocols were designed to establish: 1) peak current amplitude (Imax), 2) test potential (Vmax) and 3) half-inactivation potential (V1/2) for each of the eight individual cells. To determine V1/2, a standard steady-state inactivation protocol was executed using a series of fifteen 500 ms depolarizing pre-pulses in 10 mV increments (starting at −130 mV) and immediately followed by a 10 ms test pulse to Vmax. To estimate test compound affinity to the inactivated state of sodium channel (Ki), the holding potential for each cell was set automatically to the V1/2 calculated from a steady-state inactivation data. The current was activated with the following voltage protocol: holding at V1/2 for 2-5 seconds, return to the −120 mV for 5-10 ms to relieve fast inactivation, stepping to test potential (Vmax) for 10-20 ms. This voltage protocol was repeated every 10 seconds to establish the baseline with 2-3 buffer additions followed by the test compound addition. The dose-dependent inhibition was analyzed using Nanion's Data Analysis Package.

hNaV1.7 = target: T3, hNaV1.7 (Homo sapiens, UniProt Q15858); experiment: FDSS Membrane Potential In-Vitro Assay; format: cell-based; conditions: stimulation with veratridine and scorpion venom, read-out: NaV1.7 IC50
T3 construct: expressed in transfected cells
T3 sequence (Q15858 whole entry): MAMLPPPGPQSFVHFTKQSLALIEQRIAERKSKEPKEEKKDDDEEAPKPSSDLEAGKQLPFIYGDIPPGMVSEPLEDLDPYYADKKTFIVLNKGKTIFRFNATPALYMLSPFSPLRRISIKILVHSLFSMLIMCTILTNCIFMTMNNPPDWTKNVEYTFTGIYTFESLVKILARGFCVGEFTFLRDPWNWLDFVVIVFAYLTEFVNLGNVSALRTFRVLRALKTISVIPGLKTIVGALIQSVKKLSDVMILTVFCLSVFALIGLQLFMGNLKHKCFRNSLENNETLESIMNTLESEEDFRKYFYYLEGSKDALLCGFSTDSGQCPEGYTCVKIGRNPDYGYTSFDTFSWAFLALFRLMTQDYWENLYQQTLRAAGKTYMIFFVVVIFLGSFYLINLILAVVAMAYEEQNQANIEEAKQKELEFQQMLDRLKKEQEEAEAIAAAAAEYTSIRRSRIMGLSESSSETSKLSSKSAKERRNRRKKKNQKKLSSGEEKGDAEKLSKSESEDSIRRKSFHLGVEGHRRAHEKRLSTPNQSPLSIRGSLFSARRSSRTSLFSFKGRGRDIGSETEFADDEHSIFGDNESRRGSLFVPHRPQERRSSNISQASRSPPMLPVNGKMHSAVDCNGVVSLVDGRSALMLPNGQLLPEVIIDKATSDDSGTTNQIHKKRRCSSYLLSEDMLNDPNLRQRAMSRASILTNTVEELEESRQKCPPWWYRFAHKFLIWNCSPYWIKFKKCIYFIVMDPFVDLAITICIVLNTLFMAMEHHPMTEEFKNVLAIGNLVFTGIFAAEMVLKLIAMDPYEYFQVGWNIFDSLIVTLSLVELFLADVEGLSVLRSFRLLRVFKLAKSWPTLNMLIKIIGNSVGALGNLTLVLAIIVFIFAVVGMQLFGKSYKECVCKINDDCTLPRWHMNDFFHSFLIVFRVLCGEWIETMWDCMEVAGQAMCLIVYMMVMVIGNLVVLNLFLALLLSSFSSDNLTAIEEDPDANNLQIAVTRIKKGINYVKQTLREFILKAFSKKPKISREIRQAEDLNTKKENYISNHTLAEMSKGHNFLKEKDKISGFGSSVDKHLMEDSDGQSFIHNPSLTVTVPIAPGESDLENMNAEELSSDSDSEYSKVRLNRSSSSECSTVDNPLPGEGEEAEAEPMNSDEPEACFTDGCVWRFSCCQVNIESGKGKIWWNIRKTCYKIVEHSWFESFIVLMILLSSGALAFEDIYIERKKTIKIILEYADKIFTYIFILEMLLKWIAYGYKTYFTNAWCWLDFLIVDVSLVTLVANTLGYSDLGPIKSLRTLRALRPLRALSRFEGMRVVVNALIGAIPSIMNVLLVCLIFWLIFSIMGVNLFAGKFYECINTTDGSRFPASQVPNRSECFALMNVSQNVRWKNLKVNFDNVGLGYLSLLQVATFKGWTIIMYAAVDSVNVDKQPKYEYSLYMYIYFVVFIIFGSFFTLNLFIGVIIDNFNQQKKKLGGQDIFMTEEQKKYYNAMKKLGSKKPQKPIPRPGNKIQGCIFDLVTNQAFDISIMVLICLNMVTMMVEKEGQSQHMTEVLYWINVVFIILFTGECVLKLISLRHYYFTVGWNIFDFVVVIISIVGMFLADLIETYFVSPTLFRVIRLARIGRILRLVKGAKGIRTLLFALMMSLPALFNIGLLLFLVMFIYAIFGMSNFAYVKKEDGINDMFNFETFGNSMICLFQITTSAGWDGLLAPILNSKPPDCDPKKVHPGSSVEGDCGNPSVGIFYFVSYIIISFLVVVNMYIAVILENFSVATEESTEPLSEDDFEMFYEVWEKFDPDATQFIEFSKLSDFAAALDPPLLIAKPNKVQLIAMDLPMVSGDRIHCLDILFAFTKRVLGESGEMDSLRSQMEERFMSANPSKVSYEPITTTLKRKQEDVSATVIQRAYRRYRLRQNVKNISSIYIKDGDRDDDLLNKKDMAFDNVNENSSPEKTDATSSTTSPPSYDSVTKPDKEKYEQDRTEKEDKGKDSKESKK
T3 sequence (Q07699 19-218 partner): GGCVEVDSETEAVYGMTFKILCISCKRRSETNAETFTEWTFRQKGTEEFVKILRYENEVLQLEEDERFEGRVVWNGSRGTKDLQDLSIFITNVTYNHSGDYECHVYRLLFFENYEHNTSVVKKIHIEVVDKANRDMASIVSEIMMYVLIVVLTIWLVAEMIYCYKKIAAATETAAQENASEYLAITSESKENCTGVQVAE
T3 sequence (O60939 30-215 partner): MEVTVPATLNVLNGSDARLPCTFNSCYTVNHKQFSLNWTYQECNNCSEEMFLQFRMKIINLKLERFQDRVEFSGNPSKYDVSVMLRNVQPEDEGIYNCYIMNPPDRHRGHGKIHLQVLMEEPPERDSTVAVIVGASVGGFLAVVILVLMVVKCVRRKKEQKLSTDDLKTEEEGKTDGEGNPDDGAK

T1 sequence (P08684 2-503 limits assumed): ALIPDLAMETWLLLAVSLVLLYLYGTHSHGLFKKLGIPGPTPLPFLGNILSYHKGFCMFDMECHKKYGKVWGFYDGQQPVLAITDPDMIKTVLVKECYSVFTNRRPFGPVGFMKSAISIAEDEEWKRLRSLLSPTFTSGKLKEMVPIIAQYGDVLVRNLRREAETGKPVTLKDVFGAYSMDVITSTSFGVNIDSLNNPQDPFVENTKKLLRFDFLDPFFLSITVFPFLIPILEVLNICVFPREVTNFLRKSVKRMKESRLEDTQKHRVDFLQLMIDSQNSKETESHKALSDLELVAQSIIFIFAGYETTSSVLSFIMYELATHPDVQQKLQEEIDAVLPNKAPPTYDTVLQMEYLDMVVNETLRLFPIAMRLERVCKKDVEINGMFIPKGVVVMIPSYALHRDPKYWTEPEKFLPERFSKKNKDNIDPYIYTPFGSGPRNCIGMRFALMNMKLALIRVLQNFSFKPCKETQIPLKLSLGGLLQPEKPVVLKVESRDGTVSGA
T2 sequence (Q15858 whole entry): as the sequence (Q15858 whole entry) above
T2 sequence (Q07699 19-218 partner): as the sequence (Q07699 19-218 partner) above
T2 sequence (O60939 30-215 partner): as the sequence (O60939 30-215 partner) above

SMILES	inhibition at 1 hour, 6 µM (CYP3A4) [%]	IC50 (NaV1.7) [nM]	IC50 (hNaV1.7) [nM]
NC(CCNCCCc1cc(Cl)ccc1Oc1cc(F)c(S(=O)(=O)Nc2cscn2)cc1Cl)C(=O)O (centres unmarked) [Compound 17, 2-amino-4-((3-(5-chloro-2-(2-chloro-5-fluoro-4-(N-(thiazol-4-yl)sulfamoyl)phenoxy)phenyl)propyl)amino)butanoic acid]	0 to 25	100 to 1000	1000 to 20000
O=C(O)C1CCN(CCCc2cc(Cl)ccc2Oc2cc(F)c(S(=O)(=O)Nc3cscn3)cc2Cl)CC1 [Compound 14, 1-(3-(5-chloro-2-(2-chloro-5-fluoro-4-(N-(thiazol-4-yl)sulfamoyl)phenoxy)phenyl)propyl)piperidine-4-carboxylic acid]	0 to 25	100 to 1000	1000 to 20000
NC1(C(=O)O)CCN(CCCc2cc(Cl)ccc2Oc2cc(F)c(S(=O)(=O)Nc3cscn3)cc2Cl)CC1 [Compound 16, 4-amino-1-(3-(5-chloro-2-(2-chloro-5-fluoro-4-(N-(thiazol-4-yl)sulfamoyl)phenoxy)phenyl)propyl)piperidine-4-carboxylic acid]	25 to 50	< 100	< 130
O=C(O)CCNCCCc1cc(Cl)ccc1Oc1cc(F)c(S(=O)(=O)Nc2cscn2)cc1F [Compound 22, 3-((3-(5-chloro-2-(2,5-difluoro-4-(N-(thiazol-4-yl)sulfamoyl)phenoxy)phenyl)propyl)amino)propanoic acid]	0 to 25	100 to 1000	1000 to 20000
C[C@H](NC(=O)c1cc(-c2cc(Cl)ccc2Oc2cc(F)c(S(=O)(=O)Nc3ncns3)cc2Cl)ccn1)C(=O)O [Compound 8, (S)-2-(4-(2-(4-(N-(1,2,4-thiadiazol-5-yl)sulfamoyl)-2-chloro-5-fluorophenoxy)-5-chlorophenyl)picolinamido)propanoic acid]	25 to 50	< 100	130 to 1000
CC(NC(=O)c1cc(-c2cc(Cl)ccc2Oc2cc(F)c(S(=O)(=O)Nc3ncns3)cc2Cl)ccn1)C(=O)O (racemic) [Compound 5, 2-(4-(2-(4-(N-(1,2,4-thiadiazol-5-yl)sulfamoyl)-2-chloro-5-fluorophenoxy)-5-chlorophenyl)picolinamido)propanoic acid]	25 to 50	< 100	130 to 1000
O=C(O)CCNC(=O)c1cc(-c2cc(Cl)ccc2Oc2cc(F)c(S(=O)(=O)Nc3ncns3)cc2F)ccn1 [Compound 10, 3-(4-(2-(4-(N-(1,2,4-thiadiazol-5-yl)sulfamoyl)-2,5-difluorophenoxy)-5-chlorophenyl)picolinamido)propanoic acid]	25 to 50	–	130 to 1000
O=C(O)CNCCCc1ccccc1Oc1cc(F)c(S(=O)(=O)Nc2ncns2)cc1Cl [Compound 20, 2-((3-(2-(4-(N-(1,2,4-thiadiazol-5-yl)sulfamoyl)-2-chloro-5-fluorophenoxy)phenyl)propyl)amino)acetic acid]	50 to 100	< 100	130 to 1000
N#Cc1cc(S(=O)(=O)Nc2cscn2)ccc1Oc1ccc(Cl)cc1CCCNCCC(=O)O [Compound 23, 3-((3-(5-chloro-2-(2-cyano-4-(N-(thiazol-4-yl)sulfamoyl)phenoxy)phenyl)propyl)amino)propanoic acid]	–	100 to 1000	1000 to 20000
O=C(O)CCCNC(=O)c1cc(-c2cc(Cl)ccc2Oc2cc(F)c(S(=O)(=O)Nc3ncns3)cc2Cl)ccn1 [Compound 4, 4-(4-(2-(4-(N-(1,2,4-thiadiazol-5-yl)sulfamoyl)-2-chloro-5-fluorophenoxy)-5-chlorophenyl)picolinamido)butanoic acid]	50 to 100	–	130 to 1000
O=C(O)CNCCCc1cc(Cl)ccc1Oc1cc(F)c(S(=O)(=O)Nc2nccs2)cc1Cl [Compound 13, 2-((3-(5-chloro-2-(2-chloro-5-fluoro-4-(N-(thiazol-2-yl)sulfamoyl)phenoxy)phenyl)propyl)amino)acetic acid]	0 to 25	< 100	< 130
O=C(O)C1CCN(CCCc2cc(Cl)ccc2Oc2cc(F)c(S(=O)(=O)Nc3ncns3)cc2Cl)CC1 [Compound 32, 1-(3-(2-(4-(N-(1,2,4-thiadiazol-5-yl)sulfamoyl)-2-chloro-5-fluorophenoxy)-5-chlorophenyl)propyl)piperidine-4-carboxylic acid]	50 to 100	< 100	< 130
O=C(O)CC1CCN(CCCc2cc(Cl)ccc2Oc2cc(F)c(S(=O)(=O)Nc3ncns3)cc2Cl)CC1 [Compound 28, 2-(1-(3-(2-(4-(N-(1,2,4-thiadiazol-5-yl)sulfamoyl)-2-chloro-5-fluorophenoxy)-5-chlorophenyl)propyl)piperidin-4-yl)acetic acid]	–	< 100	130 to 1000
O=C(O)CNCCCc1cc(Cl)ccc1Oc1cc(F)c(S(=O)(=O)Nc2cscn2)cc1F [Compound 21, 2-((3-(5-chloro-2-(2,5-difluoro-4-(N-(thiazol-4-yl)sulfamoyl)phenoxy)phenyl)propyl)amino)acetic acid]	0 to 25	100 to 1000	1000 to 20000
O=C(O)CNCCCc1cc(Cl)ccc1Oc1cc(F)c(S(=O)(=O)Nc2cscn2)cc1Cl [Compound 11, 2-((3-(5-chloro-2-(2-chloro-5-fluoro-4-(N-(thiazol-4-yl)sulfamoyl)phenoxy)phenyl)propyl)amino)acetic acid]	0 to 25	< 100	–
CN(CCCc1cc(Cl)ccc1Oc1cc(F)c(S(=O)(=O)Nc2cscn2)cc1Cl)CC(=O)O [Compound 47, 2-((3-(5-chloro-2-(2-chloro-5-fluoro-4-(N-(thiazol-4-yl)sulfamoyl)phenoxy)phenyl)propyl)(methyl)amino)acetic acid]	–	1000 to 10000	1000 to 20000
O=C(O)CCCCNC(=O)c1cc(-c2cc(Cl)ccc2Oc2cc(F)c(S(=O)(=O)Nc3ncns3)cc2Cl)ccn1 [Compound 3, 5-(4-(2-(4-(N-(1,2,4-thiadiazol-5-yl)sulfamoyl)-2-chloro-5-fluorophenoxy)-5-chlorophenyl)picolinamido)pentanoic acid]	50 to 100	–	< 130
N#Cc1cc(S(=O)(=O)Nc2ncns2)ccc1Oc1ccc(Cl)cc1-c1ccnc(C(=O)NCCC(=O)O)c1 [Compound 9, 3-(4-(2-(4-(N-(1,2,4-thiadiazol-5-yl)sulfamoyl)-2-cyanophenoxy)-5-chlorophenyl)picolinamido)propanoic acid]	0 to 25	–	130 to 1000
O=C(O)C1CCCN(CCCc2cc(Cl)ccc2Oc2cc(F)c(S(=O)(=O)Nc3cscn3)cc2Cl)C1 (centres unmarked) [Compound 19, 1-(3-(5-chloro-2-(2-chloro-5-fluoro-4-(N-(thiazol-4-yl)sulfamoyl)phenoxy)phenyl)propyl)piperidine-3-carboxylic acid]	0 to 25	100 to 1000	1000 to 20000
CCOC(=O)N(CCCc1cc(Cl)ccc1Oc1cc(F)c(S(=O)(=O)Nc2nccs2)cc1Cl)CC(=O)O [Compound 34, 2-((3-(5-chloro-2-(2-chloro-5-fluoro-4-(N-(thiazol-2-yl)sulfamoyl)phenoxy)phenyl)propyl)(ethoxycarbonyl)amino)acetic acid]	–	100 to 500	500 to 1000
O=C(O)CNCCCc1cc(Cl)ccc1Oc1cc(F)c(S(=O)(=O)Nc2nccs2)cc1F [Compound 18, 2-((3-(5-chloro-2-(2,5-difluoro-4-(N-(thiazol-2-yl)sulfamoyl)phenoxy)phenyl)propyl)amino)acetic acid]	0 to 25	100 to 1000	130 to 1000
NC(=O)CCNCCCc1cc(Cl)ccc1Oc1cc(F)c(S(=O)(=O)Nc2cscn2)cc1Cl [Compound 26, 3-((3-(5-chloro-2-(2-chloro-5-fluoro-4-(N-(thiazol-4-yl)sulfamoyl)phenoxy)phenyl)propyl)amino)propanamide]	–	< 100	< 130
